Earlier results as cited in patent publication US20210069354A1, “METHOD OF TRANSPORTING AN AGENT ACROSS BLOOD-BRAIN, BLOOD-COCHLEAR OR BLOOD-CEREBROSPINAL FLUID BARRIER” (Oklahoma Medical Research Foundation, priority 2015, published 2021).

Conditions: normal brain

O=C([O-])CN(CCN(CC(=O)[O-])CC(=O)O)CCN(CC(=O)[O-])CC(=O)O.[Gd+3] [Gd-DTPA, gadolinium diethylene triamine penta acetic acid]
crossing of the BBB: does not cross the BBB
